The record followed here is patent US4211772A, “Benzopyran glycoside acetals and ketals” (Laboratoires Sarget, priority 1977, dated 1980).

Values after ≈ are worked out from the molar mass of the structure shown. Where two headings read alike, the source gives them in different places.

A short description of one data set: Solubilities in water. The class given is physicochemical. To be noted: water.
Another data set addresses T1, Aldose Reductase (Bos taurus, UniProt P16116).
T1 construct: The enzyme is extracted from beef eye lenses; from tissue; host or cells: beef eye lenses
Put plainly: Inhibition of aldose reductase in vitro (enzyme from beef eye lenses, glyceraldehyde substrate). It counts as biochemical. The note with it: in DMF solution, read-out: percentages of inhibition (aldose reductase); for inhibition at 100 µM: 10^-4 mole/l; for inhibition at 10 µM: 10^-5 mole/l; for inhibition at 1 µM: 10^-6 mole/l. The source says: Inhibition of Aldose Reductase In Vitro
The reoxidation of NADPH coupled to the enzymatic reaction was followed spectrophotometrically at 340 nm.

A further data set concerns the target T2, COMT (Rattus norvegicus, UniProt P22734).
T2 construct: The enzyme is extracted from rat liver; from tissue; host or cells: rat liver
T2 sequence (P22734 1-221 isoform P22734-2): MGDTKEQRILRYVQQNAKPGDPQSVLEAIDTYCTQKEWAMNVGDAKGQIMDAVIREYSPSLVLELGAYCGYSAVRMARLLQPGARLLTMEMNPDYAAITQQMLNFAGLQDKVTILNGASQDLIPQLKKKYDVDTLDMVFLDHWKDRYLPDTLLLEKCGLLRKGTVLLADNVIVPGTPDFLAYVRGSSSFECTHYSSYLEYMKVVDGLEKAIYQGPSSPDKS
Put plainly: Inhibition of COMT in vitro (enzyme from rat liver, 4-nitrocatechol substrate). It counts as biochemical. The note with it: in dimethylsulfoxide solution, read-out: percentages of inhibition (COMT); for inhibition at 1000 µM: 10^-3 mole/l; for inhibition at 100 µM: 10^-4 mole/l; for inhibition at 10 µM: 10^-5 mole/l. As for the experimental part: Inhibition of COMT in vitro The enzyme is extracted from rat liver by the method described by Axelrod et al, J. Biol. Chem., 233, 702(1958); its activity is measured in the presence of S-adenosyl methionine and using as substrate 4-nitrocatechol by the method described by Lee et al, J. Pharm. Sci., 66(7), 986(1977). The quantity of 4-nitrocatechol consumed was determined spectrophotometrically at 520 nm in alkaline medium.

Another data set relates to carragenin edema. Put plainly: Anti-inflammatory activity: carragenin edema test. It counts as in vivo. The note with it: Rattus norvegicus, ip, saturated bicarbonate solution, read-out: % inhibition of carragenin edema; for inhibition in vivo at 50 mg/kg: 50 mg/kg i.p.; for inhibition in vivo at 100 mg/kg: 100 mg/kg i.p. As for the experimental part:
Anti-inflammatory activity
This was determined by the carragenin edema test using male Wistar EOPS rats. Inflammation was induced by the injection of 0.1 ml of a suspension of 5% carragenin in physiological serum into the muscular bundle of the metatarsal region of the posterior paw of the animal. The test substance was administered i.p. in neutralized solution at the same time as the carragenin.
Edema was measured by plethysmometry at different times after the administration of the carragenin.
Tables IV and V show the percentages of inhibition as a function of time and of dosage for certain compounds of the present invention.
The above results were obtained for solutions of substantially alkaline
The reference experiments were performed using physiological serum brough
to a pH approximately the same as the pH of the solutions to be tested.

As for `COc1ccc([C@@H]2CC(=O)c3c(O)cc(O[C@@H]4O[C@H](CO[C@@H]5O[C@@H](C)[C@H](O)[C@@H](O)[C@H]5O)[C@@H](O)[C@H](O)[C@H]4O)cc3O2)cc1O` [Hesperidin, reference compound], the solubility in the data set “Solubilities in water” (read-out: Solubilities in water) amounted to 20 µg/mL (≈ 32.8 µM).
The term inhibition denotes the percentage by which the read-out fell short of the control. For the compound `C[C@@H]1O[C@@H](Oc2c(-c3cc(O)c(O)c(O)c3)oc3cc(O)cc(O)c3c2=O)[C@H](O)[C@H](O)[C@H]1O` [Myricitrin, reference compound], at Aldose Reductase, the inhibition at 100 µM was 83%, the inhibition at 10 µM turned out to be 56% and the inhibition at 1 µM is 9%.
For the compound `C[C@@H]1O[C@@H](O[C@H]2[C@H](Oc3cc(O)c4c(c3)O[C@H](c3ccc(O)cc3)CC4=O)O[C@H](CO)[C@@H](O)[C@@H]2O)[C@H](O)[C@H](O)[C@H]1O` [Naringin, reference compound], the inhibition at 100 µM at Aldose Reductase was determined as 33%.
For `C[C@@H]1O[C@@H](Oc2c(-c3cc(O)c(O)c(O)c3)oc3cc(O)cc(O)c3c2=O)[C@@H]2OC(C)(C)O[C@@H]2[C@H]1O` [No. 14, 3-O-(2,3-O,O-isopropylidene-α-L-rhamnosyl)myricitin], at Aldose Reductase, the inhibition at 100 µM came to 93%, the inhibition at 10 µM was 83% and the inhibition at 1 µM was found to be 11%.
In the case of `COc1ccc(C2O[C@@H]3[C@@H](O)[C@H](C)O[C@@H](OC[C@H]4O[C@@H](Oc5c(-c6ccc(O)c(O)c6)oc6cc(O)cc(O)c6c5=O)[C@H](O)[C@@H](O)[C@@H]4O)[C@@H]3O2)cc1` (stereo partly drawn) [No. 22, 3-O-(2,3-O,O-p-methoxybenzylidene-6-α-L-rhamnosyl-β-D-glucosyl)quercetin], on Aldose Reductase, the inhibition at 100 µM was determined as 92%, the inhibition at 10 µM was 79% and the inhibition at 1 µM was 0%. Besides, at COMT, the inhibition at 1000 µM fell in the range of 80 to 100%, the inhibition at 100 µM lay in the range of 80 to 92% and the inhibition at 10 µM came to 45%.
Turning to `C[C@@H]1O[C@@H](OC[C@H]2O[C@@H](Oc3c(-c4ccc(O)c(O)c4)oc4cc(O)cc(O)c4c3=O)[C@H](O)[C@@H](O)[C@@H]2O)[C@@H]2OC(c3ccc(O)cc3)O[C@@H]2[C@H]1O` (stereo partly drawn) [No. 23, 3-O-(2,3-O,O-p-hydroxybenzylidene-6-α-L-rhamnosyl-β-D-glucosyl)quercetin], on Aldose Reductase, the inhibition at 100 µM was determined as 80% and the inhibition at 10 µM was determined as 41%. In addition, on COMT, the inhibition at 1000 µM came to 80%, the inhibition at 100 µM worked out at 90% and the inhibition at 10 µM was determined as 40%.
`O=c1ccc2cc(O[C@@H]3O[C@@H]4COC(c5ccc(O)c(O)c5)O[C@H]4[C@H](O)[C@H]3O)c(O)cc2o1` (stereo partly drawn) [No. 24, 6-O-(4,6-O,O-(3,4-dihydroxybenzylidene)-β-D-glucosyl) esculetol]: at Aldose Reductase, the inhibition at 100 µM worked out at 71% and the inhibition at 10 µM worked out at 0%.
As to `C[C@@H]1O[C@@H](OC[C@H]2O[C@@H](Oc3c(-c4ccc(O)c(O)c4)oc4cc(O)cc(O)c4c3=O)[C@H](O)[C@@H](O)[C@@H]2O)[C@@H]2OC3(CCC4CCCCC4C3)O[C@@H]2[C@H]1O` (stereo partly drawn) [No. 28, 3-O-(2,3-O,O-(2-perhydronaphthylidene)-6-α-L-rhamnosyl-β-D-glucosyl) quercetin], on Aldose Reductase, the inhibition at 100 µM came out at 67%, the inhibition at 10 µM was 62% and the inhibition at 1 µM amounted to 0%. Besides, at COMT, the inhibition at 1000 µM was determined as 76%, the inhibition at 100 µM came to 52% and the inhibition at 10 µM is 0%.
With `C[C@@H]1O[C@@H](OC[C@H]2O[C@@H](Oc3c(-c4ccc(O)c(O)c4)oc4cc(O)cc(O)c4c3=O)[C@H](O)[C@@H](O)[C@@H]2O)[C@@H]2OC3(O[C@@H]2[C@H]1O)C1CC2CC(C1)CC3C2` (stereo partly drawn) [No. 33, 3-O-(2,3-O,O-adamantylidene-6-α-L-rhamnosyl-β-D-glucosyl)quercetin], at Aldose Reductase, the inhibition at 100 µM was 100%, the inhibition at 10 µM worked out at 92% and the inhibition at 1 µM is 44%. Moreover, the inhibition at 0.1 µM at Aldose Reductase (10^-7 mole/l) is 7%. On COMT, the inhibition at 100 µM was 81 to 83% and the inhibition at 10 µM is 33 to 36%.
Regarding `Cc1ccc(C2(C)O[C@@H]3[C@@H](O)[C@H](C)O[C@@H](OC[C@H]4O[C@@H](Oc5c(-c6ccc(O)c(O)c6)oc6cc(O)cc(O)c6c5=O)[C@H](O)[C@@H](O)[C@@H]4O)[C@@H]3O2)cc1` (stereo partly drawn) [No. 35, 3-O-(2,3-O,O-(α-methyl-p-methylbenzylidene)-6-α-L-rhamnosyl-β-D-glucosyl) quercetin], at Aldose Reductase, the inhibition at 100 µM worked out at 100%, the inhibition at 10 µM came to 72% and the inhibition at 1 µM is 26%. At COMT, the inhibition at 1000 µM turned out to be 90%, the inhibition at 100 µM was 74% and the inhibition at 10 µM was 72%.
For the compound `COc1ccc(C2(C)O[C@@H]3[C@@H](O)[C@H](C)O[C@@H](OC[C@H]4O[C@@H](Oc5c(-c6ccc(O)c(O)c6)oc6cc(O)cc(O)c6c5=O)[C@H](O)[C@@H](O)[C@@H]4O)[C@@H]3O2)cc1` (stereo partly drawn) [No. 36, 3-O-(2,3-O,O-(α-methyl-p-methoxybenzylidene)-6-α-L-rhamnosyl-β-D-glucosyl) quercetin], at Aldose Reductase, the inhibition at 100 µM stood at 100%, the inhibition at 10 µM amounted to 69% and the inhibition at 1 µM is 22%. At COMT, the inhibition at 1000 µM was found to be 91% and the inhibition at 10 µM lay within 15 to 22%.
For the compound `C[C@@H]1O[C@@H](OC[C@H]2O[C@@H](Oc3c(-c4ccc(O)c(O)c4)oc4cc(O)cc(O)c4c3=O)[C@H](O)[C@@H](O)[C@@H]2O)[C@@H]2OC(C)(c3ccc(Cl)cc3)O[C@@H]2[C@H]1O` (stereo partly drawn) [No. 37, 3-O-(2,3-O,O-(α-methyl-p-chlorobenzylidene)-6-α-L-rhamnosyl-β-D-glucosyl) quercetin], at Aldose Reductase, the inhibition at 100 µM came out at 100%, the inhibition at 10 µM came to 59% and the inhibition at 1 µM stood at 24%. Also, on COMT, the inhibition at 1000 µM was 100%, the inhibition at 100 µM is 74% and the inhibition at 10 µM was 27%.
In the case of `C[C@@H]1O[C@@H](Oc2c(-c3ccc(O)c(O)c3)oc3cc(O)cc(O)c3c2=O)[C@H](O)[C@H](O)[C@H]1O` [Quercitrin, reference compound], the Solubilities in water entry in “Solubilities in water” is “insoluble”.
With `O=c1c(O)c(-c2ccc(O)c(O)c2)oc2cc(O)cc(O)c12` [quercetin, reference compound], the inhibition in vivo at 50 mg/kg in the data set on carragenin edema (1/2 h) is 0%; in the data set on carragenin edema (1 h, 1 h 1/2), 0%; in the data set with carragenin edema (1 h, 1 h), 0%; in the data set with carragenin edema (2 h, 2 h), 0%; in the data set on carragenin edema (3 h, 3 h), 0%; with carragenin edema (4 h, 4 h), 0%. In addition, the inhibition in vivo at 50 mg/kg in the data set on carragenin edema (5 h, 5 h) amounted to 0%; with carragenin edema (6 h, 6 h) it was 0%. Also, the inhibition in vivo at 100 mg/kg in the data set with carragenin edema (1/2 h) came out at 2%; in the data set with carragenin edema (1 h, 1 h 1/2) it was 8%; in the data set on carragenin edema (1 h, 1 h), 0%; in the data set on carragenin edema (2 h, 2 h) it was 7%; in the data set with carragenin edema (3 h, 3 h) it was 0%; in the data set with carragenin edema (4 h, 4 h) it was 0%. Also, the inhibition in vivo at 100 mg/kg is 0% in the data set with carragenin edema (5 h, 5 h) and 0% in the data set with carragenin edema (6 h, 6 h).
